Molecules are shown by their SMILES.

The series is described as follows: RP, Waters ACQUITY UPLC BEH C18, 100 × 2.1 mm, 1.7 µm, 60 °C, 0.3 mL/min, estimated dead time 0.73 min; A: water + 0.01% formic acid; B: methanol + 0.01% formic acid; gradient (min/%B) 0/10 14/90 16/90. As to conditions: stereoisomer not certain.

For the molecule `Cc1cc(C2CC2)nc(Nc2ccccc2)n1`, the LC retention time is 11.4 min.

Turning to `CCOC(=O)C(CCc1ccccc1)NC(C)C(=O)N1CCCC1C(=O)O` (stereo unspecified), the LC retention time was 7.47 min.

For `Cc1c(N)c(=O)n(-c2ccccc2)n1C`, the LC retention time was 3.48 min.

As to `Cc1nc(N(C)C)nc(OC(=O)N(C)C)c1C`, the LC retention time was 7.79 min.

With `CC(C(=O)O)c1cccc(C(=O)c2ccccc2)c1` (stereo unspecified), the LC retention time was 9.5 min.

For the molecule `CCC1OC(=O)C(C)C(OC2CC(C)(OC)C(O)C(C)O2)C(C)C(OC2OC(C)CC(N(C)C)C2O)C(C)(O)CC(C)CN(C)C(C)C(O)C1(C)O` (stereo unspecified), the LC retention time was 6.2 min.

Source of the values: the RepoRT retention time repository (doi:10.1016/j.chroma.2012.12.030).
